US7982017B2, “Antibodies recognizing a carbohydrate containing epitope on CD-43 and CEA expressed on cancer cells and methods using same” (BioAlliance C.V., priority 2007, dated 2011)

Experiments:
[1] = test system: Colo205 cells; assay: Apoptosis of Colo205 cells by 5F1 antibodies in combination with Oxaliplatin (24 h, Annexin V / PI); format: cell-based; details: background subtracted
Procedure: 1.4×10^5 of Colo205 cells were seeded into the wells of 96-well plates. Aliquots of Oxaliplatin reconstituted in 5% glucose solution were prepared freshly and added to each well at the final concentration of 1 and 10 ug/ml, along or in combination with aliquots of purified c5F1-v17, c5F1-v24, c5F1-v25 and control antibodies at the final concentrations of 10 and 30 ug/ml. The treated cells were kept at 37° incubator for 24 h before FACS analysis for apoptosis. For cellular apoptosis assay, Annexin V staining was measured using Annexin-V-FITC Apoptosis Detection Kit (Strong Biotech, Cat. No. AV 250) following the manufacturer's instruction. In brief, the treated cells were harvested and resuspended in Annexin V binding buffer containing Annexin V-FITC at room temperature. After 15 min incubation in the dark, the cells were washed twice with 200 ul of Annexin V binding buffer. Before FACS analysis, 0.5 ul of propidium iodide (PI) was added. All flow cytometric analyses were performed on a BD-LSR flow cytometer (Becton Dickinson) using the Cell Quest software. The Annexin V positive and/or PI positive cells are considered apoptotic cells.

[2] = test system: COLO 205 cells; assay: Binding assay: flow cytometric binding of 5F1 antibodies to COLO 205 cells; details: for binding to Colo 205 (words): FIG. 3, 0.125 to 4 ug/ml
Procedure: Purified m5F1, c5F1-v0, c5F1-v15 and c5F1-v16 antibodies at the concentration ranging from 0.125 to 4 ug/ml were added to 1.5×10^5 COLO 205 cells and incubated for 30 min at 4° C., washed for twice with PBS containing 2% FBS and 0.05% NaN3, followed by incubation with 1 μg/ml of corresponding secondary antibodies (R-PE-conjugated goat F(ab′)2 anti-mouse IgG(H+L), Southern Biotech, Cat. No. 1032-09; or R-PE-conjugated goat anti-human IgG, Southern Biotech, Cat. No. 2040-09) at 4° C. for 30 min. At the end of staining, samples were washed twice with PBS containing 2% FBS and 0.05% NaN3 and analyzed by flow cytometer. All flow cytometric analyses were performed on a BD-LSR flow cytometer (Becton Dickinson) using the Cell Quest software.
Purified m5F1, c5F1-v0, c5F1-yl7, c5F1-v24 and c5F1-v25 antibodies at 1 ug/ml were added to 2×10^5 Colo 205 cells and incubated for 30 min at 4° C., washed for twice with PBS containing 1% FBS, followed by incubation with 1 ug/ml of corresponding secondary antibodies (R-PE-conjugated goat F(ab′)2 anti-mouse IgG(H+L), Southern Biotech, Cat. No. 1032-09; or R-PE-conjugated goat anti-human IgG, Southern Biotech, Cat. No. 2040-09) at 4° C. for 30 min. At the end of staining, samples were washed twice with PBS containing 1% FBS and 0.05% NaN3 and analyzed by flow cytometer. All flow cytometric analyses were performed on a BD-LSR flow cytometer (Becton Dickinson) using the Cell Quest software.

[3] = test system: COLO 205 cells; assay: Six-hour apoptosis assay (Annexin V / PI, FACS) in COLO 205; format: cell-based; details: 6 h
Procedure: 1.5×10^5 of COLO 205 cells were seeded into the wells of 96-well plates. Aliquots of purified m5F1, c5F1-v0, c5F1-v15, c5F1-v16 and control antibodies at the concentration ranging from 2 to 32 ug/ml were prepared freshly in culture medium and added to each well. The sample treated with m9E10 and h16C11A were used as isotype control. The treated cells were kept at 37° incubator for 6 h before FACS analysis for apoptosis. For cellular apoptosis assay, Annexin V staining was measured using Annexin-V-FITC Apoptosis Detection Kit (Strong Biotech, Cat. No. AVK250) following the manufacturer's instruction. In brief, the treated cells were harvested and resuspended in Annexin V binding buffer containing Annexin V-FITC at room temperature. After 15 min incubation in the dark, the cells were washed twice with 200 μl of Annexin V binding buffer. Before FACS analysis, 0.25 μg/ml of propidium iodide (PI) was added. All flow cytometric analyses were performed on a BD-LSR flow cytometer (Becton Dickinson) using the Cell Quest software. The Annexin VI positive and/or PI positive cells are considered apoptotic cells.
1.5×10^5 of Colo205 cells were seeded into the wells of 96-well plates. Aliquots of purified m5F1, c5F1, c5F1-v17, c5F1-v24, c5F1-v25 and control antibodies at the concentration ranging from 8 to 32 ug/ml were prepared freshly in culture medium and added to each well. The treated cells were kept at 37° incubator for 6 h before FACS analysis for apoptosis. For cellular apoptosis assay, Annexin V staining was measured using Annexin-V-FITC Apoptosis Detection Kit (Strong Biotech, Cat. No. AV 250) following the manufacturer's instruction. In brief, the treated cells were harvested and resuspended in Annexin V binding buffer containing Annexin V-FITC at room temperature. After 15 min incubation in the dark, the cells were washed twice with 200 ul of Annexin V binding buffer. Before FACS analysis, 0.25 ug/ml of propidium iodide (PI) was added. All flow cytometric analyses were performed on a BD-LSR flow cytometer (Becton Dickinson) using the Cell Quest software. The Annexin VI positive and/or PI positive cells are considered apoptotic cells.

| Molecule | % apoptosis ([1]; Oxaliplatin 1 ug/ml alone (Antibody 0)) [%] | % apoptosis ([1]; Oxaliplatin 10 ug/ml alone (Antibody 0)) [%] | binding to Colo 205 (words) [2] | binding to Colo 205 (words) ([2]; listed as c5F1v0) | Median Fluorescence Intensity (MFI) ([2]; Table 10, antibodies at 1 ug/ml) | apoptosis-inducing activity in COLO 205 ([3]; 2 to 32 ug/ml, compared with m5F1) | % of Annexin V and/or PI positive cells ([3]; Table 7, 4 ug/ml) [%] | % of Annexin V and/or PI positive cells ([3]; Table 7, 8 ug/ml) [%] | % of Annexin V and/or PI positive cells ([3]; Table 7, 16 ug/ml) [%] | % of Annexin V and/or PI positive cells ([3]; Table 7, 32 ug/ml) [%] | % of Annexin V and/or PI positive cells ([3]; Table 11 Exp. 1, 8 ug/ml) [%] | % of Annexin V and/or PI positive cells ([3]; Table 11 Exp. 1, 16 ug/ml) [%] | % of Annexin V and/or PI positive cells ([3]; Table 11 Exp. 1, 32 ug/ml) [%] | % of Annexin V and/or PI positive cells ([3]; Table 11 Exp. 2, 8 ug/ml) [%] | % of Annexin V and/or PI positive cells ([3]; Table 11 Exp. 2, 16 ug/ml) [%] | % of Annexin V and/or PI positive cells ([3]; Table 11 Exp. 2, 32 ug/ml) [%] |
| --- | --- | --- | --- | --- | --- | --- | --- | --- | --- | --- | --- | --- | --- | --- | --- | --- |
| O=C1[O][Pt]2([NH][C@@H]3CCCC[C@H]3[NH]2)[O]C1=O [Oxaliplatin] | 2 | 6 |  |  |  |  |  |  |  |  |  |  |  |  |  |  |
| c5F1-v0: chimeric 5F1: variable region of murine 5F1 with constant region of human IgG1; heavy chain v0[H], light chain v0[L] |  |  | bind COLO 205 cells | significant binding | 2760 | not as efficient as m5F1 | 33 | 46 | 68 | 78 | 34 | 60 | 70 | 54 | 63 | 69 |
